Assay results from ChEMBL document CHEMBL4346758 (2019).
Active and inactive are the calls of the source. The calls are words filed in the database; no cut-off is given here.

How the values were obtained:
Influenza A virus [1] = test: microbe, parasite or virus in culture; settings: A/Puerto Rico/8/1934(H1N1), A549
[2] = Cytotoxicity against human A549 cells assessed as reduction in cell viability by MTT assay; type: cell-based
[3] = tested on: Influenza A virus (A/Thailand/Kan353/2004(H5N1)); test: Inhibition of Influenza A virus (A/Thailand/Kan353/2004(H5N1)) neuraminidase N1 using fluorogenic 2'-(4-Methylumbelliferyl)-alpha-D-N-acetylneuraminic acid sodium salt hydrate as substrate measured after 30 mins by microplate reader analysis
Influenza A virus [4] = test: Inhibition of hemagglutinin 5 in Influenza A virus assessed as inhibition of chicken erythrocytes aggregation
H5N1 subtype [5] = test: Antiviral activity against Influenza A virus (A/Thailand/Kan353/2004(H5N1)) infected in MDCK cells assessed as inhibition of viral entry; type: functional, organism-based
MDCK = test: Cytotoxicity against MDCK cells assessed as cell viability; type: cell-based, Canis lupus familiaris; settings: dog
Influenza A virus [6] = type: functional, organism-based; settings: H5N1
[7] = tested on: Vesicular stomatitis virus; test: Antiviral activity against VSV-G enveloped pseudovirus infected in MDCK cells assessed as inhibition of viral entry; type: functional, organism-based
[8] = Binding affinity to HA2 subunit by SPR assay; design: species or system Influenza A virus
H5N1 subtype [9] = type: functional, organism-based; settings: 5 uM
Hemagglutinin = Hemagglutinin (Influenza A virus, UniProt B4URE7); test: Binding affinity to hemagglutinin by SPR assay
Chain of Hemagglutinin (B4URE7 whole entry): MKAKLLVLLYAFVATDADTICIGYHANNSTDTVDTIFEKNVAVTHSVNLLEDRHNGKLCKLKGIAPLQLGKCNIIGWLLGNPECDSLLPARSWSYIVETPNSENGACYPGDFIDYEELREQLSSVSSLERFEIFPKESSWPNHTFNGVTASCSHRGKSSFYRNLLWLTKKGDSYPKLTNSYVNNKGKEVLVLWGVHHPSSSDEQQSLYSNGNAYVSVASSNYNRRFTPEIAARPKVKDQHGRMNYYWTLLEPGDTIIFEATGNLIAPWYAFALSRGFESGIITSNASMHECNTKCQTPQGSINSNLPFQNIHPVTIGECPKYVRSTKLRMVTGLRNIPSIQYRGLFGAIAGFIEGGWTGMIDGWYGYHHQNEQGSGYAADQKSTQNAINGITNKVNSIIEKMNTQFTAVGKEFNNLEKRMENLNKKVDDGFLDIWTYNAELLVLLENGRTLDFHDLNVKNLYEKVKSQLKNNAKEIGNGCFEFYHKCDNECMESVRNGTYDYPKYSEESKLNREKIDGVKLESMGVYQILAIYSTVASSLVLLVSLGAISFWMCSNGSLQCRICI

Row | Compound | IC50 (Influenza A virus [1]) | CC50 [2] | inhibition [3] | inhibition (Influenza A virus [4]) | IC50 (H5N1 subtype [5]) | Activity (MDCK) | inhibition (Influenza A virus [6]) | inhibition [7] | Kd [8] | inhibition (H5N1 subtype [9]) | Kd (Hemagglutinin)
1 | C[C@H]1[C@H](C)CC[C@]2(C(=O)NCCN3CCCCC3)CC[C@]3(C)C(=CC[C@@H]4[C@@]5(C)CC[C@H](O[C@@H]6O[C@H](CO)[C@@H](O[C@@H]7O[C@@H](C)[C@H](O)[C@@H](O)[C@H]7O)[C@H](O)[C@H]6O[C@@H]6O[C@@H](C)[C@H](O)[C@@H](O)[C@H]6O)C(C)(C)[C@@H]5CC[C@]43C)[C@H]12 | 21.3 µM | > 200 µM | inactive |  |  |  |  |  |  |  | 
2 | C[C@H]1[C@H](C)CC[C@]2(C(=O)NCCN3CCOCC3)CC[C@]3(C)C(=CC[C@@H]4[C@@]5(C)CC[C@H](O[C@@H]6O[C@H](CO)[C@@H](O[C@@H]7O[C@@H](C)[C@H](O)[C@@H](O)[C@H]7O)[C@H](O)[C@H]6O[C@@H]6O[C@@H](C)[C@H](O)[C@@H](O)[C@H]6O)C(C)(C)[C@@H]5CC[C@]43C)[C@H]12 | 18.2 µM | > 200 µM | inactive | inactive | 3.88 µM | Non-Toxic | Dose-dependent effect | inactive | 0.00017 µM | Active | 0.0161 µM
3 | CCOC(=O)C1=C[C@@H](OC(CC)CC)[C@H](NC(C)=O)[C@@H](N)C1 [OSELTAMIVIR] | 4.61 µM | > 200 µM |  |  |  |  |  |  |  |  | 
4 | C[C@H]1[C@H](C)CC[C@]2(C(=O)O)CC[C@]3(C)C(=CC[C@@H]4[C@@]5(C)CC[C@H](O[C@@H]6O[C@H](CO)[C@@H](O[C@@H]7O[C@@H](C)[C@H](O)[C@@H](O)[C@H]7O)[C@H](O)[C@H]6O[C@@H]6O[C@@H](C)[C@H](O)[C@@H](O)[C@H]6O)C(C)(C)[C@@H]5CC[C@]43C)[C@H]12 | 38.1 µM | 66.6 µM |  |  |  |  |  |  |  |  | 
